Measured values from the supplement of paper PMC10307832.

How the values were obtained:
Assay in all cases: relative viability (nuclei count vs DMSO), 5 days (fraction); higher = more cells survive
[1] = compound: CC(C)(C)c1cc(NC(=O)Nc2ccc(-c3cn4c(n3)sc3cc(OCCN5CCOCC5)ccc34)cc2)no1 [Quizartinib] + CC(=O)Nc1cccc(-n2c(=O)n(C3CC3)c(=O)c3c(Nc4ccc(I)cc4F)n(C)c(=O)c(C)c32)c1 [Trametinib] (partner 0.02 µM)
Outline: (§1)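 Relative viability was taken as the ratio of nuclei in treated wells to nuclei in vehicle wells. Lung cancer cell lines in 1536-well plates received compounds by pin tool one day after seeding, either one drug alone or a fixed anchor-drug dose plus five library-drug doses (not always all listed) in √10 steps. Nuclei were counted on 4× images after 5 days of treatment, and values are medians of duplicate plates.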

[2] = compound: CC(C)(C)c1cc(NC(=O)Nc2ccc(-c3cn4c(n3)sc3cc(OCCN5CCOCC5)ccc34)cc2)no1 [Quizartinib] + Nc1ncn([C@H]2C[C@H](O)[C@@H](CO)O2)c(=O)n1 [Decitabine] (partner 2 µM)
Outline: as §1

[3] = compound: CC(C)(C)c1cc(NC(=O)Nc2ccc(-c3cn4c(n3)sc3cc(OCCN5CCOCC5)ccc34)cc2)no1 [Quizartinib] + N=C(N)NC(=N)NCCc1ccccc1 [Phenformin] (partner 250 µM)
Outline: as §1

[4] = compound: COCC[n+]1c2c(n(Cc3cnccn3)c1C)C(=O)c1ccccc1C2=O [YM155] + CC1(C)CCC(c2ccc(Cl)cc2)=C(CN2CCN(c3ccc(C(=O)NS(=O)(=O)c4ccc(N[C@H](CCN5CCOCC5)CSc5ccccc5)c(S(=O)(=O)C(F)(F)F)c4)cc3)CC2)C1 [Navitoclax] (partner 0.5 µM)
Outline: as §1

Cell Line	relative viability ([1]; first compound 0.001 µM)	relative viability ([1]; first compound 0.003162 µM)	relative viability ([1]; first compound 0.01 µM)	relative viability ([1]; first compound 0.03162 µM)	relative viability ([1]; first compound 0.1 µM)	relative viability ([2]; first compound 0.001 µM)	relative viability ([2]; first compound 0.003162 µM)	relative viability ([2]; first compound 0.01 µM)	relative viability ([2]; first compound 0.03162 µM)	relative viability ([2]; first compound 0.1 µM)	relative viability ([3]; first compound 0.001 µM)	relative viability ([3]; first compound 0.003162 µM)	relative viability ([3]; first compound 0.01 µM)	relative viability ([3]; first compound 0.03162 µM)	relative viability ([3]; first compound 0.1 µM)	relative viability ([4]; first compound 0.002 µM)	relative viability ([4]; first compound 0.006325 µM)	relative viability ([4]; first compound 0.02 µM)	relative viability ([4]; first compound 0.06325 µM)
NCI-H2347	0.249	0.271	0.267	0.229	0.287	0.578	0.586	0.65	0.619	0.59	0.268	0.359	0.461	0.395	0.497	0.756	0.779	0.83	0.46
LC-2-ad	0.809	0.92	0.899	0.883	0.624	0.718	0.81	0.776	0.841	0.68	0.498	0.639	0.579	–	0.502	0.414	0.479	0.456	0.509
NCI-H3122	0.21	0.276	0.286	0.275	0.219	0.382	0.354	0.524	0.459	0.417	–	0.377	0.381	–	0.359	0.969	1.04	1.02	1.05
NCI-H1563	–	–	–	–	–	–	–	–	–	–	0.648	0.708	0.656	0.514	0.533	–	–	–	–
HCC-78	0.727	0.662	0.848	0.593	0.913	0.651	0.624	0.619	0.631	0.751	0.687	0.832	0.707	0.574	0.73	0.79	0.717	0.767	0.942
LK-2	0.796	0.671	0.801	0.765	0.789	0.263	0.215	0.363	0.348	0.438	0.243	–	0.47	0.138	0.108	0.776	0.855	0.85	1.09
RERF-LC-KJ	0.797	0.849	0.942	0.62	0.844	0.628	0.73	0.694	0.429	0.628	0.394	0.397	0.424	0.359	0.315	1.04	1.07	0.974	1.06
NCI-H1944	0.453	0.405	0.419	0.448	0.313	0.38	0.389	0.499	0.419	0.399	0.206	0.209	0.182	0.192	0.173	1.05	0.983	1.05	1.17
ChaGo-K-1	–	0.881	0.889	0.9	0.865	–	0.521	0.589	0.532	0.596	0.516	0.494	0.455	0.443	0.421	1.14	0.928	0.785	0.93
NCI-H1734	0.604	0.64	0.78	0.571	0.698	0.504	0.459	0.656	0.499	0.485	0.3	0.338	0.48	0.391	0.387	0.867	0.88	0.835	0.876
201T	0.595	0.696	0.755	0.708	0.742	0.812	0.799	0.882	0.847	0.87	0.472	0.426	0.476	0.408	0.438	1.26	1.18	1.17	1.23
EBC-1	–	–	–	–	–	–	–	–	–	–	–	–	–	–	–	0.428	0.404	0.458	0.389
NCI-H522	0.688	0.741	0.796	0.53	0.727	0.684	0.7	0.67	0.603	0.618	0.591	0.652	0.645	0.622	0.542	–	–	–	–
NCI-H1623	–	–	–	–	–	–	–	–	–	–	0.455	0.645	0.599	0.595	0.634	–	–	–	–
NCI-H1703	–	–	–	–	–	–	–	–	–	–	–	–	–	–	–	1.07	1.29	0.938	0.319
NCI-H2342	0.799	0.83	0.884	0.9	0.764	0.749	0.763	0.678	0.729	0.724	0.595	0.629	0.539	0.616	0.688	–	–	–	–
A549	–	–	–	–	–	0.193	0.249	0.161	0.27	0.25	0.166	0.155	0.201	0.117	0.162	1.28	1.24	1.11	0.14
ABC-1	–	–	–	–	–	–	1	1.16	1.29	1.16	0.237	0.322	0.227	0.261	0.18	–	–	–	–
NCI-H358	0.146	0.146	0.11	–	0.129	0.194	0.209	0.232	–	0.192	0.292	0.4	0.327	0.115	0.299	–	–	–	–
NCI-H1299	–	–	–	–	–	–	–	–	–	–	–	–	–	–	–	1.08	0.996	1.01	1.03
NCI-H2228	0.513	0.593	0.484	0.436	0.511	–	–	–	–	–	0.242	0.228	0.52	0.345	0.26	1.03	0.487	0.956	0.857
NCI-H650	0.94	0.938	0.96	0.923	1.06	0.319	0.286	0.342	0.365	0.384	0.433	0.454	0.409	0.399	0.476	–	–	–	–
Calu-6	–	–	–	–	–	–	–	–	–	–	–	–	–	–	–	0.849	0.589	0.191	0.112
